Laboratory results taken from ChEMBL document CHEMBL1151209, “New quassinoids, javanicolides C and D and javanicosides B--F, from seeds of Brucea javanica” (J Nat Prod, 2004).
Converted amounts (≈) assume the structure as drawn.

System: P388
Assay: Cytotoxicity against mouse P388 cells after 48 hrs by MTT assay
Assay type: functional, cell-based
Conditions: P388, 48 h

With `COC(=O)[C@@]12OC[C@]34[C@H]([C@@H](O)[C@@H]1O)[C@@]1(C)C[C@@H](O)[C@@H](O)[C@@H](C)[C@@H]1C[C@H]3OC(=O)[C@H](OC(=O)C=C(C)C)[C@@H]24` [JAVANICOLIDE C] the IC50 was > 100 µg/mL.

`COC(=O)[C@@]12OC[C@]34[C@H]([C@@H](O)[C@@H]1O)[C@@]1(C)[C@H](O)[C@@H](O)C=C(C)[C@@H]1C[C@H]3OC(=O)[C@H](OC(=O)/C=C(\C)C(C)(C)O)[C@@H]24` [JAVANICOLIDE D] showed an IC50 of 18 µg/mL (≈ 31.8 µM).

In the case of `COC(=O)[C@@]12OC[C@]34[C@H]([C@@H](O)[C@@H]1O)[C@@]1(C)C(=O)C(O[C@@H]5O[C@H](CO)[C@@H](O)[C@H](O)[C@H]5O)=C[C@@H](C)[C@@H]1C[C@H]3OC(=O)[C@H](OC(=O)CC(C)C)[C@@H]24` [JAVANICOSIDE B], the IC50 is reported as 5.6 µg/mL (≈ 8.18 µM).

For `COC(=O)[C@@]12OC[C@@]34[C@@H](CC5=C(C)C(=O)C(O[C@@H]6O[C@H](CO)[C@@H](O)[C@H](O)[C@H]6O)=C[C@]5(C)[C@H]3[C@@H](O)[C@@H]1O)OC(=O)[C@H](OC(=O)C=C(C)C)[C@@H]24` [JAVANICOSIDE C], the IC50 was 18 µg/mL (≈ 26.4 µM).

In the case of `CC/C(=C\C(=O)O[C@H]1C(=O)O[C@@H]2C[C@H]3[C@H](C)C(=O)C(O[C@@H]4O[C@H](CO)[C@@H](O)[C@H](O)[C@H]4O)=C[C@]3(C)[C@H]3[C@@H](O)[C@H](O)[C@@]4(C(=O)OC)OC[C@]32[C@@H]14)C(C)(C)O` [JAVANICOSIDE D], the IC50 is reported as 89 µg/mL (≈ 120 µM).

`COC(=O)[C@@]12OC[C@]34[C@H]([C@@H](O)[C@@H]1O)[C@@]1(C)C=C(O[C@@H]5O[C@H](CO)[C@@H](O)[C@H](O)[C@H]5O)C(=O)[C@@H](C)[C@@H]1C[C@H]3OC(=O)[C@H](OC(=O)CC(C)C(C)(C)OC(C)=O)[C@@H]24` (some centres not stated) [JAVANICOSIDE E] gave an IC50 of 16 µg/mL (≈ 20.8 µM).

`CC/C(C)=C/C(=O)O[C@H]1C(=O)O[C@@H]2C[C@H]3[C@H](C)C(=O)C(O[C@@H]4O[C@H](CO)[C@@H](O)[C@H](O)[C@H]4O)=C[C@]3(C)[C@H]3[C@@H](O)[C@H](O)[C@@]4(C(=O)OC)OC[C@]32[C@@H]14` [JAVANICOSIDE F] showed an IC50 of 50 µg/mL (≈ 71.8 µM).
